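Where inhibition never reached the appropriate level, the endpoint shown equals the highest concentration tested. Otherwise, values were interpolated linearly from a five-concentration, 48-hour dose response in 96-well plates. GI50 = concentration required for 50% inhibition of growth. TGI: concentration producing complete growth inhibition.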
Experiments:
Assay in all cases: DTP human tumour cell line panel, 48 h
K-562 leukemia = system: K-562 leukemia
MDA-MB-231 breast = system: MDA-MB-231 breast
HT29 colon = system: HT29 colon
SK-MEL-28 melanoma = system: SK-MEL-28 melanoma
NCI/ADR-RES ovarian = system: NCI/ADR-RES ovarian
MDA-MB-468 breast = system: MDA-MB-468 breast
SF-268 CNS = system: SF-268 CNS
NCI-H522 lung = system: NCI-H522 lung
SF-539 CNS = system: SF-539 CNS
MCF7 breast = system: MCF7 breast
NCI-H460 lung = system: NCI-H460 lung
PC-3 prostate = system: PC-3 prostate
SNB-19 CNS = system: SNB-19 CNS
HOP-92 NSCLC = system: HOP-92 NSCLC
LOX IMVI melanoma = system: LOX IMVI melanoma
OVCAR-5 ovarian = system: OVCAR-5 ovarian
HCT-116 colon = system: HCT-116 colon
RPMI-8226 leukemia = system: RPMI-8226 leukemia
IGROV1 ovarian = system: IGROV1 ovarian
786-0 renal = system: 786-0 renal
UO-31 renal = system: UO-31 renal
A549 NSCLC = system: A549 NSCLC
SK-MEL-2 melanoma = system: SK-MEL-2 melanoma
M14 melanoma = system: M14 melanoma
NCI-H226 lung = system: NCI-H226 lung
HCC-2998 colon = system: HCC-2998 colon
MOLT-4 leukemia = system: MOLT-4 leukemia
UACC-62 melanoma = system: UACC-62 melanoma
SF-295 CNS = system: SF-295 CNS
CCRF-CEM leukemia = system: CCRF-CEM leukemia
HL-60(TB) leukemia = system: HL-60(TB) leukemia
HCT-15 colon = system: HCT-15 colon
OVCAR-4 ovarian = system: OVCAR-4 ovarian
MDA-MB-435 = system: MDA-MB-435
ACHN renal = system: ACHN renal
HOP-62 NSCLC = system: HOP-62 NSCLC
UACC-257 melanoma = system: UACC-257 melanoma
HS 578T breast = system: HS 578T breast
MALME-3M melanoma = system: MALME-3M melanoma
BT-549 breast = system: BT-549 breast
U251 CNS = system: U251 CNS
T-47D breast = system: T-47D breast
KM12 colon = system: KM12 colon
SNB-75 CNS = system: SNB-75 CNS
SR leukemia = system: SR leukemia
A498 renal = system: A498 renal
SK-MEL-5 melanoma = system: SK-MEL-5 melanoma
CAKI-1 renal = system: CAKI-1 renal
NCI-H23 lung = system: NCI-H23 lung
COLO 205 colon = system: COLO 205 colon
OVCAR-3 ovarian = system: OVCAR-3 ovarian
EKVX NSCLC = system: EKVX NSCLC
SN12C renal = system: SN12C renal
SK-OV-3 ovarian = system: SK-OV-3 ovarian
SW-620 colon = system: SW-620 colon
TK-10 renal = system: TK-10 renal
OVCAR-8 ovarian = system: OVCAR-8 ovarian
DU-145 prostate = system: DU-145 prostate
RXF 393 renal = system: RXF 393 renal

## Cc1ccc(Cl)cc1NC(=O)N/C(N)=N/c1nc2ccccc2s1
K-562 leukemia
  GI50: 34.6 nM
  TGI: > 33900 nM
MDA-MB-231 breast
  GI50: 39.2 nM
  TGI: 278 nM
HT29 colon
  GI50: 28.9 nM
  TGI: 118 nM
SK-MEL-28 melanoma
  GI50: 608 nM
  TGI: 19900 nM
NCI/ADR-RES ovarian
  GI50: 23 nM
  TGI: 54.9 nM
MDA-MB-468 breast
  GI50: 217 nM
  TGI: 650 nM
SF-268 CNS
  GI50: 493 nM
  TGI: 26600 nM
NCI-H522 lung
  GI50: 24.7 nM
  TGI: 88.3 nM
SF-539 CNS
  GI50: 22.2 nM
  TGI: 54.7 nM
MCF7 breast
  GI50: 199 nM
  TGI: 11400 nM
NCI-H460 lung
  GI50: 39.1 nM
  TGI: 1320 nM
PC-3 prostate
  GI50: 55.1 nM
  TGI: 11300 nM
SNB-19 CNS
  GI50: 66.5 nM
  TGI: 15200 nM
HOP-92 NSCLC
  GI50: 1170 nM
  TGI: 10900 nM
LOX IMVI melanoma
  GI50: 61.9 nM
  TGI: 1520 nM
OVCAR-5 ovarian
  GI50: 131 nM
  TGI: 4960 nM
HCT-116 colon
  GI50: 37.1 nM
  TGI: 696 nM
RPMI-8226 leukemia
  GI50: 42.5 nM
  TGI: 6190 nM
IGROV1 ovarian
  GI50: 99.2 nM
  TGI: 2860 nM
786-0 renal
  GI50: 64.1 nM
  TGI: 4020 nM
UO-31 renal
  GI50: 59.3 nM
  TGI: 10200 nM
A549 NSCLC
  GI50: 115 nM
  TGI: 4500 nM
SK-MEL-2 melanoma
  GI50: 95 nM
  TGI: 941 nM
M14 melanoma
  GI50: 25.6 nM
  TGI: 523 nM
NCI-H226 lung
  GI50: 187 nM
  TGI: 2550 nM
HCC-2998 colon
  GI50: 67.6 nM
  TGI: 1110 nM
MOLT-4 leukemia
  GI50: 60.3 nM
  TGI: 8400 nM
UACC-62 melanoma
  GI50: 46.7 nM
  TGI: 5530 nM
SF-295 CNS
  GI50: 29.9 nM
  TGI: 1300 nM
CCRF-CEM leukemia
  GI50: 37.1 nM
  TGI: 7470 nM
HL-60(TB) leukemia
  GI50: 30.9 nM
  TGI: 843 nM
HCT-15 colon
  GI50: 40.5 nM
  TGI: 3000 nM
OVCAR-4 ovarian
  GI50: 1580 nM
  TGI: 16300 nM
MDA-MB-435
  GI50: 20.3 nM
  TGI: 43.5 nM
ACHN renal
  GI50: 79.4 nM
  TGI: 6370 nM
HOP-62 NSCLC
  GI50: 50.8 nM
  TGI: 2980 nM
UACC-257 melanoma
  GI50: 6470 nM
  TGI: 33200 nM
HS 578T breast
  GI50: 34.3 nM
  TGI: 22700 nM
MALME-3M melanoma
  GI50: 54.4 nM
  TGI: 12000 nM
BT-549 breast
  GI50: 183 nM
  TGI: 1370 nM
U251 CNS
  GI50: 37 nM
  TGI: 3670 nM
T-47D breast
  GI50: 1320 nM
  TGI: 53200 nM
KM12 colon
  GI50: 45.5 nM
  TGI: 7120 nM
SNB-75 CNS
  GI50: 125 nM
  TGI: 9290 nM
SR leukemia
  GI50: 51.3 nM
A498 renal
  GI50: 12400 nM
  TGI: 25800 nM
SK-MEL-5 melanoma
  GI50: 33.2 nM
  TGI: 136 nM
CAKI-1 renal
  GI50: 45.6 nM
  TGI: 6660 nM
NCI-H23 lung
  GI50: 45.2 nM
  TGI: 3570 nM
COLO 205 colon
  GI50: 67.9 nM
  TGI: 285 nM
OVCAR-3 ovarian
  GI50: 36.8 nM
  TGI: 1330 nM
EKVX NSCLC
  GI50: 109 nM
  TGI: 15200 nM
SN12C renal
  GI50: 64.1 nM
  TGI: 2440 nM
SK-OV-3 ovarian
  GI50: 62.4 nM
  TGI: 4730 nM
SW-620 colon
  GI50: 44.5 nM
  TGI: 14400 nM
TK-10 renal
  GI50: 4950 nM
  TGI: 16600 nM
OVCAR-8 ovarian
  GI50: 43.8 nM
  TGI: 2080 nM
DU-145 prostate
  GI50: 47.1 nM
  TGI: 2850 nM

## COc1cnc2c(c1)C(=O)c1c-2n(CCCNCCO)c(=O)c2cc(F)ccc12
K-562 leukemia
  GI50: 280 nM
  TGI: 6050 nM
MDA-MB-231 breast
  GI50: 1640 nM
  TGI: 4100 nM
HT29 colon
  GI50: 300 nM
  TGI: 1380 nM
SK-MEL-28 melanoma
  GI50: 1920 nM
  TGI: 5690 nM
NCI/ADR-RES ovarian
  GI50: 678 nM
  TGI: 2580 nM
MDA-MB-468 breast
  GI50: 160 nM
  TGI: 351 nM
SF-268 CNS
  GI50: 1200 nM
  TGI: 11000 nM
NCI-H522 lung
  GI50: 420 nM
  TGI: 1830 nM
SF-539 CNS
  GI50: 326 nM
  TGI: 1220 nM
MCF7 breast
  GI50: 101 nM
  TGI: 1700 nM
NCI-H460 lung
  GI50: 198 nM
  TGI: 908 nM
PC-3 prostate
  GI50: 667 nM
  TGI: 10500 nM
SNB-19 CNS
  GI50: 666 nM
  TGI: 8060 nM
HOP-92 NSCLC
  GI50: 1660 nM
  TGI: 7260 nM
LOX IMVI melanoma
  GI50: 167 nM
  TGI: 502 nM
OVCAR-5 ovarian
  GI50: 661 nM
  TGI: 2420 nM
HCT-116 colon
  GI50: 183 nM
  TGI: 657 nM
RPMI-8226 leukemia
  GI50: 250 nM
  TGI: 1880 nM
IGROV1 ovarian
  GI50: 510 nM
  TGI: 2680 nM
786-0 renal
  GI50: 277 nM
  TGI: 962 nM
UO-31 renal
  GI50: 195 nM
  TGI: 1170 nM
A549 NSCLC
  GI50: 198 nM
  TGI: 1100 nM
SK-MEL-2 melanoma
  GI50: 2360 nM
  TGI: 4360 nM
M14 melanoma
  GI50: 589 nM
  TGI: 2410 nM
NCI-H226 lung
  GI50: 452 nM
  TGI: 1320 nM
HCC-2998 colon
  GI50: 549 nM
  TGI: 1700 nM
MOLT-4 leukemia
  GI50: 174 nM
  TGI: 757 nM
UACC-62 melanoma
  GI50: 496 nM
  TGI: 1830 nM
SF-295 CNS
  GI50: 306 nM
  TGI: 1230 nM
CCRF-CEM leukemia
  GI50: 206 nM
  TGI: 966 nM
HL-60(TB) leukemia
  GI50: 190 nM
  TGI: 1370 nM
HCT-15 colon
  GI50: 328 nM
  TGI: 1560 nM
OVCAR-4 ovarian
  GI50: 1710 nM
  TGI: 8650 nM
MDA-MB-435
  GI50: 1270 nM
  TGI: 4520 nM
ACHN renal
  GI50: 175 nM
  TGI: 465 nM
HOP-62 NSCLC
  GI50: 207 nM
  TGI: 605 nM
UACC-257 melanoma
  GI50: 2130 nM
  TGI: 7970 nM
HS 578T breast
  GI50: 2020 nM
  TGI: 12400 nM
MALME-3M melanoma
  GI50: 851 nM
  TGI: 2560 nM
BT-549 breast
  GI50: 969 nM
  TGI: 4040 nM
U251 CNS
  GI50: 268 nM
  TGI: 3240 nM
T-47D breast
  GI50: 269 nM
  TGI: 1550 nM
KM12 colon
  GI50: 872 nM
  TGI: 10500 nM
SNB-75 CNS
  GI50: 778 nM
  TGI: 5310 nM
SR leukemia
  GI50: 97.1 nM
A498 renal
  GI50: 1440 nM
  TGI: 7880 nM
SK-MEL-5 melanoma
  GI50: 477 nM
  TGI: 1640 nM
CAKI-1 renal
  GI50: 220 nM
  TGI: 1680 nM
NCI-H23 lung
  GI50: 259 nM
  TGI: 785 nM
COLO 205 colon
  GI50: 838 nM
  TGI: 2770 nM
OVCAR-3 ovarian
  GI50: 819 nM
  TGI: 6510 nM
EKVX NSCLC
  GI50: 1210 nM
  TGI: 5140 nM
SN12C renal
  GI50: 287 nM
  TGI: 1560 nM
SK-OV-3 ovarian
  GI50: 668 nM
  TGI: 2450 nM
RXF 393 renal
  GI50: 885 nM
  TGI: 2540 nM
SW-620 colon
  GI50: 367 nM
  TGI: 2610 nM
TK-10 renal
  GI50: 1470 nM
  TGI: 4180 nM
OVCAR-8 ovarian
  GI50: 555 nM
  TGI: 2790 nM
DU-145 prostate
  GI50: 287 nM
  TGI: 3590 nM

— PubChem BioAssay (NCI)
